Measurements from patent publication US9861625B2, “Methods and compositions for treating cancer through inhibition of PI3K” (Duke University, priority 2014, dated 2018).

What was measured:
Type in all cases: cell-based
[1] = test system: 21 established DLBCL cell lines; test: MTT viability assay of DLBCL cell lines with and without MTOR mutations; conditions: on average; FIG. 1G
Protocol: Lymphoma cell lines were cultured with RPMI1640 media supplemented with 10% v/v Fetal Bovine Serum (FBS) and 1% v/v Penicillin/Streptomycin supplied at 10,000 U penicillin and 10 mg streptomycin/ml (BJAB, Farage, Karpas422, Pfieffer, RL, SCI 1, SKI, Toledo, U2932, WSU_NHL, HT), or RPMI1640 supplemented with 15% v/v FBS and 1% v/v P/S (RCK8, SUDH4, SUDHL7), Iscove's modified Dulbecco's medium (IMDM) supplemented with 20% v/v human plasma and 1% P/S ([…]), or alpha-MEM media supplemented with 10% FBS and 1% P/S (TMD8). Cells were grown in a 5% CO2 environment at 37° C.
The effect the PI3K inhibitor drug BKM120 (Novartis) on lymphoma cell lines was assayed on 96-well format using MTT viability assays. 40,000 cells were grown in drug at 10 concentrations: 25 μM, and nine serial 1:2 dilutions down to 0.05 μM. For each condition tested, there were five technical replicates. Two controls were included: media only and drug-free cells. If the IC50 was not reached within this drug concentration range, the experiment was repeated with an additional drug concentration of […]. […] 100 μl of MTT detergent solution was added, and color was developed in the dark at room temperature overnight, after which 570 nm absorbance was measured. After normalization to control wells, the IC50 values were calculated. […]

[2] = test system: Ly8 cell lines with stable knockdown of PAK1 expression; test: MTT assay in Ly8 cells with shRNA knockdown of PAK1; conditions: on average, P<0.01
Protocol: The 3-(4,5-dimethylthiazol-2-yl)-2,5-diphenyltetrazolium bromide (MTT) cell viability assay was used to determine cell viability in response to drug treatment. Five replicates per concentration tested were carried out in serial dilutions with a total of ten concentrations with a 50% reduction in drug concentration per dilution for each plate. A total of 15 μl of MTT reagent was added to each drug-treated well and incubated for three hours in 37° C. Detergent was added to each drug-treated well and incubated overnight at room temperature without exposure to light. Absorbance was measured at 570 nm using a plate reader from Tecan Group.
Lentiviral pGIPZ constructs containing either a scrambled sequence (non-silencing; cat. no. RHS4346; Open Biosystems) as control, or a hairpin sequence targeting the PAK1 gene (cat. no. RHS4430; Open Biosystems) were mixed with Lentiviral packaging mix (cat. no. TLP4691; Open Biosystems) and transfected into TLA-HEK-293T cells using Arrest-in as a transfection reagent. Virus was harvested 72 hours post-transfection and frozen at −80° C. until use. DLBCL cell lines were infected with virus in the presence of 8 μg/μl of polybrene, using 1×10^5 cells per well in a 6-well plate. The plates containing cells and virus were spun at 700 g for 90 minutes at room temperature. […] Successful knockdown of PAK1 was confirmed by Western blot and quantitative PCR. […]

[3] = test system: Ly8 cells and normal human B cells (tonsil lymphocytes); test: Toxicity in Ly8 cells compared to normal B cells (alamar blue); conditions: alone and in combination; 36 hours
Protocol: BEZ235 was tested in combination with the PAK1 inhibitor IPA-3 using Calcusyn software by applying the Chou-Talalay method. BJAB, HBL1, HBL2, HT, Ly8, and Riva cells were tested, as were normal tonsil lymphocytes. Ly8 and tonsillar lymphocytes were cultured in 96-well plates (approximately 500,000 cells/ml) for 36 hours in Iscove's modified Dulbecco's medium (IMDM) with 20% human AB serum. Viability was assessed with alamar blue dye and normalized to the lowest concentration of BEZ235 in each group.
Finally, BEZ235 and IPA-3 were administered separately and concurrently to normal human B cells to ascertain a therapeutic window between normal and malignant cells.

SMILES	sensitivity of cell lines with MTOR mutations (HT, Ly1, SUDHL7) versus the other 18 cell lines [1]	sensitivity of the three shRNA-modified cell lines versus unmodified Ly8 cells [2] [fold]	toxicity in Ly8 cells as compared to normal B cells [3]
Nc1cc(C(F)(F)F)c(-c2cc(N3CCOCC3)nc(N3CCOCC3)n2)cn1 [BKM120]	fivefold higher sensitivity	–	–
Cn1c(=O)n(-c2ccc(C(C)(C)C#N)cc2)c2c3cc(-c4cnc5ccccc5c4)ccc3ncc21 [BEZ235]	–	3.5	selective toxicity
